The record followed here is US20120264685A1 (priority 2009, published 2012).

One experiment relates to male C57BL/6J mice. Briefly: Acute single dose 120-min time-course experiment, in vivo glucose reduction. Also noted: unit not given here. Particulars: 2 μM/kg, oral, n = 8, Mean ± SEM. Here is the method: Acute single dose 120-min time-course experiments were carried out in male C57BL/6J or db/db mice, age 8-12 weeks, bred in-house. The animals were housed in groups of 6 animals per cage, for a week, in order to habituate them to vivarium conditions (25+4° C., 60-65% relative humidity, 12:12 h light: dark cycle, with lights on at 7.30 am). All the animal experiments were carried out according to the internationally valid guidelines following approval by the ‘Zydus Research Center animal ethical committee’.
[…] On the day of experiment, food was withdrawn from all the cages, water was given ad-libitum and were kept for overnight fasting. Vehicle (normal saline)/test/standard compounds were administered intraperitoneally (i.p.) or orally, on a body weight basis. Soon after the 0 min. blood collection from each animal, the subsequent blood collections were done at 30, 60 and 120 or upto 240 min., via retro-orbital route, under light ether anesthesia (Chen, D., et al., Diabetes Obesity Metabolism, 2005, 7, 307. Kim, J. G. et al., Diabetes, 2003, 52, 751).
The blood samples were centrifuged and the separated serum was immediately subjected for the glucose estimation. The serum for insulin estimation was stored at −70° C. until used for the insulin estimation. The glucose estimation was carried out with DPEC-GOD/POD method (Ranbaxy Fine Chemicals Limited, Diagnostic division, India), using Spectramax-190, in 96-microwell plate reader (Molecular devices Corporation, Sunnyvale, Calif.). […] The AUC and BCAUC obtained from graphs were analyzed for one way ANOVA, followed by Dunnett's post test, using Graph Pad prism software. Furthermore, the insulin estimation was carried out using rat/mouse insulin ELISA kit (Linco research, Missouri USA).

For experiment [1], the system named is RIN5F (Rat Insulinoma) cells. The experiment in a line: In vitro glucose-dependent insulin secretion (RIN5F cell assay). The format is cell-based. Particulars: 16.7-mM glucose load, n = 3, mean ± S.D. How it is done: RIN5F (Rat Insulinoma) cells were cultured in RPMI 1640 medium supplemented with sodium pyruvate (1 mM) HEPES and Glucose (4.5 g/L) in a humidified incubator (5% CO2), at 37° C. After trypsinization, RIN5F cells were seeded at a concentration of 0.2×10^6 cells per well, in 12 well plates. The cells were grown overnight to 80% confluence and insulin secretion experiments were performed as follows (Montrose-Rafizadeh C., et al., Mol. Cell. Endo. 1997, 130, 109.; Wang, X., et al., Endocrinology 2001, 5, 1820).
The cells were washed once with PBS solution followed by 40 min. incubation in fresh Krebs-Ringer Balanced Buffer containing NaCl (115 mmol/L), KCl (4.7 mmol/L), CaCl2 (1.28 mmol/L), MgSO4.7H2O (1.2 mmol/L), KH2PO4 (1.2 mmol/L), NaHCO3 (10 mmol/L) and HEPES (25 mmol/L), containing Glucose (1.1 mM) and B.S.A (0.5%), pH 7.4. The buffer was replaced after 40 min. and the cells were incubated (37° C.) with the test peptidomimetics, at different concentration, for 30 min., both in the presence (16.7 mM) and absence (0 mM) of glucose load. The supernatant was collected and the insulin amount was measured by ultra sensitive Rat insulin ELISA kit (Crystal Chem, IL). The protein was estimated in the supernatant using Bicinchoninic Acid kit, according to the manufacturer's protocol (Sigma Aldrich, MO). The total insulin content obtained in Pico-gram (pg) was divided with the total protein (μg) in order to normalize for differences in cell density between wells.

Where a SMILES comes first, the peptide text is derived from it. [ ]: non-standard residue; d: D form. ξ: configuration not given here. ξαMeBip(2'-Et,4'-OMe) = CCc1cc(OC)ccc1-c1ccc(CC(C)(N)C(=O)O)cc1; ξBip(2'-Et-4'-OMe) = CCc1cc(OC)ccc1-c1ccc(CC(N)C(=O)O)cc1; ξαMePhe(2,6-F2) = CC(N)(Cc1c(F)cccc1F)C(=O)O; ξαMe(hhPhe) = CC(N)(CCCc1ccccc1)C(=O)O; ξαMePhe(2-F) = CC(N)(Cc1ccccc1F)C(=O)O; ξhhPhe = NC(CCCc1ccccc1)C(=O)O; ξαMeD = CC(N)(CC(=O)O)C(=O)O; ξαMeP = CC1(C(=O)O)CCCN1; ξαMeS = CC(N)(CO)C(=O)O; Aib = CC(C)(N)C(=O)O

On to `CCc1cc(OC)ccc1-c1ccc(CC(C)(NC(=O)C(C)(CC(=O)O)NC(=O)[C@H](CO)NC(=O)[C@@H](NC(=O)[C@H](Cc2ccccc2)NC(=O)[C@@H](NC(=O)CNC(=O)[C@H](CCC(N)=O)NC(=O)C(C)(C)NC(=O)[C@H](Cc2c[nH]cn2)NC(=O)[C@@H](N)C(C)C)[C@@H](C)O)[C@@H](C)O)C(=O)NC(CCCc2ccccc2)C(N)=O)cc1` (single isomer, unassigned) [Seq. ID. No. 59, VH-Aib-QGTFTS-(αMe-Asp)-(αMe-Bip(OMe))-(APPA)], for which the “blood glucose level (in vivo glucose reduction)” value stood at 184 ± 2.5 in the experiment on male C57BL/6J mice (0 min), 115 ± 3.6 with male C57BL/6J mice (30 min), 113 ± 4.2 in the experiment with male C57BL/6J mice (60 min) and 110 ± 2.4 in the experiment with male C57BL/6J mice (120 min).

As for `CCc1cc(OC)ccc1-c1ccc(CC(C)(NC(=O)C(C)(CC(=O)O)NC(=O)[C@H](CO)NC(=O)[C@@H](NC(=O)[C@H](Cc2ccccc2)NC(=O)[C@@H](NC(=O)CNC(=O)[C@H](CCC(=O)O)NC(=O)C2(C)CCCN2C(=O)[C@H](Cc2c[nH]cn2)NC(=O)[C@@H](N)C(C)C)[C@@H](C)O)[C@@H](C)O)C(=O)NC(CCCc2ccccc2)C(N)=O)cc1` (single isomer, unassigned) [Seq. ID. No. 64, VH-(αMe-Pro)-EGTFTS-(αMe-Asp)-(αMe-Bip(OMe))-(APPA)], the “blood glucose level (in vivo glucose reduction)” value with male C57BL/6J mice (0 min) was found to be 183 ± 2.4; in the experiment on male C57BL/6J mice (30 min), 116 ± 3.1; with male C57BL/6J mice (60 min) it was 112 ± 4.8; in the experiment on male C57BL/6J mice (120 min), 110 ± 2.5.

For the molecule `CCc1cc(OC)ccc1-c1ccc(CC(C)(NC(=O)C(C)(CC(=O)O)NC(=O)[C@H](CO)NC(=O)[C@@H](NC(=O)C(C)(Cc2c(F)cccc2F)NC(=O)[C@@H](NC(=O)CNC(=O)[C@H](CCC(N)=O)NC(=O)C2(C)CCCN2C(=O)[C@H](Cc2c[nH]cn2)NC(=O)[C@@H](N)C(C)C)[C@@H](C)O)[C@@H](C)O)C(=O)NC(CCCc2ccccc2)C(N)=O)cc1` (single isomer, unassigned) [Seq. ID. No. 76, VH-(αMe-Pro)-QGT-(αMe-2,6-diFPhe)-TS-(αMe-Asp)-(αMe-Bip(OMe))-(APPA)], the “blood glucose level (in vivo glucose reduction)” value came out at 183 ± 2.4 with male C57BL/6J mice (0 min), 116 ± 3.1 in the experiment on male C57BL/6J mice (30 min), 112 ± 4.8 in the experiment with male C57BL/6J mice (60 min) and 110 ± 2.5 in the experiment on male C57BL/6J mice (120 min).

`CCc1cc(OC)ccc1-c1ccc(CC(NC(=O)C(C)(CC(=O)O)NC(=O)C(C)(CO)NC(=O)[C@@H](NC(=O)C(C)(Cc2c(F)cccc2F)NC(=O)[C@@H](NC(=O)CNC(=O)[C@H](CCC(N)=O)NC(=O)C2(C)CCCN2C(=O)[C@H](Cc2c[nH]cn2)NC(=O)[C@@H](N)C(C)C)[C@@H](C)O)[C@@H](C)O)C(=O)NC(C)(CCCc2ccccc2)C(N)=O)cc1` (stereo partly drawn) [compound 126] (H-VH[ξαMeP]QGT[ξαMePhe(2,6-F2)]T[ξαMeS][ξαMeD][ξBip(2'-Et-4'-OMe)][ξαMe(hhPhe)]-NH2): the “Insulin secretion” value in experiment [1] (0.1 nM test compd.) is 16.6 ± 0.41 pg/µg/h; in experiment [1] (1 nM test compd.), 22.9 ± 0.32 pg/µg/h; in experiment [1] (10 nM test compd.), 36.6 ± 0.19 pg/µg/h.

With `CCc1cc(OC)ccc1-c1ccc(CC(NC(=O)C(C)(CC(=O)O)NC(=O)C(C)(CO)NC(=O)[C@@H](NC(=O)C(C)(Cc2c(F)cccc2F)NC(=O)[C@@H](NC(=O)CNC(=O)[C@H](CCC(=O)O)NC(=O)C2(C)CCCN2C(=O)[C@H](Cc2c[nH]cn2)NC(=O)[C@@H](N)C(C)C)[C@@H](C)O)[C@@H](C)O)C(=O)NC(C)(CCCc2ccccc2)C(N)=O)cc1` (stereo partly drawn) [compound 130] (H-VH[ξαMeP]EGT[ξαMePhe(2,6-F2)]T[ξαMeS][ξαMeD][ξBip(2'-Et-4'-OMe)][ξαMe(hhPhe)]-NH2), the “Insulin secretion” value in experiment [1] (0.1 nM test compd.) was determined as 15.6 ± 0.33 pg/µg/h; in experiment [1] (1 nM test compd.), 21.8 ± 0.16 pg/µg/h; in experiment [1] (10 nM test compd.), 35.6 ± 0.26 pg/µg/h.

For `CCc1cc(OC)ccc1-c1ccc(CC(C)(NC(=O)[C@H](CC(=O)O)NC(=O)C(C)(CO)NC(=O)[C@@H](NC(=O)[C@H](Cc2ccccc2)NC(=O)[C@@H](NC(=O)CNC(=O)[C@H](CCC(N)=O)NC(=O)C2(C)CCCN2C(=O)[C@H](Cc2c[nH]cn2)NC(=O)[C@@H](N)C(C)C)[C@@H](C)O)[C@@H](C)O)C(=O)NC(C)(CCCc2ccccc2)C(N)=O)cc1` (stereo partly drawn) [compound 160] (H-VH[ξαMeP]QGTFT[ξαMeS]D[ξαMeBip(2'-Et,4'-OMe)][ξαMe(hhPhe)]-NH2), the “Insulin secretion” value was determined as 16.8 ± 0.20 pg/µg/h in experiment [1] (0.1 nM test compd.), 22.7 ± 0.29 pg/µg/h in experiment [1] (1 nM test compd.) and 36.6 ± 0.31 pg/µg/h in experiment [1] (10 nM test compd.).

On to `CCc1cc(OC)ccc1-c1ccc(CC(C)(NC(=O)[C@H](CC(=O)O)NC(=O)C(C)(CO)NC(=O)[C@@H](NC(=O)C(C)(Cc2ccccc2F)NC(=O)[C@@H](NC(=O)CNC(=O)[C@H](CCC(N)=O)NC(=O)C2(C)CCCN2C(=O)[C@H](Cc2c[nH]cn2)NC(=O)[C@@H](N)C(C)C)[C@@H](C)O)[C@@H](C)O)C(=O)NC(C)(CCCc2ccccc2)C(N)=O)cc1` (stereo partly drawn) [compound 168] (H-VH[ξαMeP]QGT[ξαMePhe(2-F)]T[ξαMeS]D[ξαMeBip(2'-Et,4'-OMe)][ξαMe(hhPhe)]-NH2), for which the “Insulin secretion” value in experiment [1] (0.1 nM test compd.) is 11.9 ± 0.17 pg/µg/h; in experiment [1] (1 nM test compd.), 14.2 ± 0.13 pg/µg/h; in experiment [1] (10 nM test compd.), 27.6 ± 0.16 pg/µg/h.

Turning to `CCc1cc(OC)ccc1-c1ccc(CC(C)(NC(=O)[C@H](CC(=O)O)NC(=O)C(C)(CO)NC(=O)[C@@H](NC(=O)C(C)(Cc2c(F)cccc2F)NC(=O)[C@@H](NC(=O)CNC(=O)[C@H](CCC(N)=O)NC(=O)C(C)(C)NC(=O)[C@H](Cc2c[nH]cn2)NC(=O)[C@@H](N)C(C)C)[C@@H](C)O)[C@@H](C)O)C(=O)NC(C)(CCCc2ccccc2)C(N)=O)cc1` (stereo partly drawn) [compound 175] (H-VH[Aib]QGT[ξαMePhe(2,6-F2)]T[ξαMeS]D[ξαMeBip(2'-Et,4'-OMe)][ξαMe(hhPhe)]-NH2), the “Insulin secretion” value in experiment [1] (0.1 nM test compd.) was 12.4 ± 0.22 pg/µg/h; in experiment [1] (1 nM test compd.), 15.2 ± 0.32 pg/µg/h; in experiment [1] (10 nM test compd.) it was 29.6 ± 0.50 pg/µg/h.

For `CCc1cc(OC)ccc1-c1ccc(CC(C)(NC(=O)C(C)(CC(=O)O)NC(=O)[C@H](CO)NC(=O)[C@@H](NC(=O)[C@H](Cc2ccccc2)NC(=O)[C@@H](NC(=O)CNC(=O)[C@H](CCC(N)=O)NC(=O)[C@H](C)NC(=O)[C@H](Cc2c[nH]cn2)NC(=O)[C@@H](N)C(C)C)[C@@H](C)O)[C@@H](C)O)C(=O)NC(C)(CCCc2ccccc2)C(N)=O)cc1` (stereo partly drawn) [compound 182] (H-VHAQGTFTS[ξαMeD][ξαMeBip(2'-Et,4'-OMe)][ξαMe(hhPhe)]-NH2), the “Insulin secretion” value in experiment [1] (0.1 nM test compd.) was 13.1 ± 0.11 pg/µg/h; in experiment [1] (1 nM test compd.), 14.9 ± 0.17 pg/µg/h; in experiment [1] (10 nM test compd.), 28.8 ± 0.44 pg/µg/h.

For `CCc1cc(OC)ccc1-c1ccc(CC(C)(NC(=O)[C@H](CC(=O)O)NC(=O)[C@H](CO)NC(=O)[C@@H](NC(=O)[C@H](Cc2ccccc2)NC(=O)[C@@H](NC(=O)CNC(=O)[C@H](CCC(=O)O)NC(=O)[C@H](C)NC(=O)[C@H](Cc2c[nH]cn2)NC(=O)[C@@H](NC(=O)[C@@H](N)C(C)C)C(C)C)[C@@H](C)O)[C@@H](C)O)C(=O)NC(CCCc2ccccc2)C(N)=O)cc1` (stereo partly drawn) [compound 210] (H-VVHAEGTFTSD[ξαMeBip(2'-Et,4'-OMe)][ξhhPhe]-NH2), the “Insulin secretion” value in experiment [1] (0.1 nM test compd.) was 16.3 ± 0.15 pg/µg/h; in experiment [1] (1 nM test compd.) it was 22.4 ± 0.21 pg/µg/h; in experiment [1] (10 nM test compd.) it was 36.2 ± 0.11 pg/µg/h.
